Test system: HIV with mutations in the HIV protease sequence
Assay: Phenotypic fold resistance to protease inhibitors, protease mutations 84A/84L/84C/54M/54L/54V in a background (Examples 8-13)
Assay type: cell-based, HIV-1
Experimental: As is the case with the genotyping assays, the recombinant virus assay starts with the amplification of viral target sequences by means of PCR. The amplicons are incorporated into a proviral laboratory clone with sequences homologous to those present in the amplicon deleted. This generates a stock of chimeric viruses. The viruses are tested for their ability to grow in the presence of different concentrations of drugs. Results are obtained by calculating IC50 values for each inhibitor and by reporting the results as IC50 values, expressed in μM concentrations, or by computing the ratio of the IC50 values found for the chimeric virus to the IC50 values found for a wild type susceptible laboratory virus tested in parallel. In the latter case, resistance is expressed as “fold-resistance” compared to a wild-type susceptible HIV-1 strain. In order to meet the need for high-volume testing and a short turn-around time for an individual test, the latest generation of phenotyping assays has undergone further modifications. The use of reporter gene systems for susceptibility testing allows the implementation of laboratory automation and standardization. See Pauwels, et al., J. Virol. Methods 20, 309-321 (1998); Paulous, S., et al., International Workshop on HIV Drug Resistance, Treatment Strategies and Eradication, St. Petersburg, Fla., USA. Abstr. 46 (1997); and Deeks, S. G., et al., 2nd International Workshop on HIV Drug Resistance and Treatment Strategies, Lake Maggiore, Italy. Abstr. 53 (1998).
The ANTIVIROGRAM® assay (Virco) (WO 97/27480) is based on homologous recombination of patient derived HIV-1 gag/PR/RT sequences into a proviral HIV-1 clone correspondingly deleted for the gag/PR/RT sequences. See Pauwels, et al., J. Virol. Methods 20, 309-321 (1998). A similar assay (Phenosense ViroLogic) is based on enzymatic ligation of patient-derived PR/RT sequences into a correspondingly deleted proviral vector carrying an indicator gene, luciferase, inserted in the deleted HIV-1 envelope gene. See Deeks, S. G., et al., 2nd International Workshop on HIV Drug Resistance and Treatment Strategies, Lake Maggiore, Italy. Abstr. 53 (1998). Hertogs et al. Antimicrob. Agents Chemother. 44(3) 568-573 (2000) the disclosures of which are herein incorporated by reference.
The methods of monitoring HIV-1 drug resistance, may also be used in combination with phenotypic drug resistance testing of viral isolates. For example, in one embodiment, a phenotypic test is utilized that is based upon the construction of chimeric HIV-1 strains composed of the protease (PR) and reverse transcriptase (RT) gene sequences which are isolated and amplified from the patient viral RNA. These strains may subsequently be recombined inside CD4+ T cells with a standard laboratory isogenic (HXB2) HIV-1 DNA construct from which the PR/RT gene sequences were deleted. The recombinant strains may then be grown in the presence of the above-mentioned antiviral drugs and the susceptibility of the viral isolates may be expressed as fold-change value of the IC50 of the drug on the patient isolates over the IC50 of the drug on a wild-type laboratory reference strain.

With `CC(C)CN(C[C@@H](O)[C@H](Cc1ccccc1)NC(=O)O[C@H]1CCOC1)S(=O)(=O)c1ccc(N)cc1` [Amprenavir, amprenavir] the “mean fold increase in resistance” value (Table 9 #1, protease genotype WT) was 1 fold, the “mean fold increase in resistance” value (Table 9 #2, protease genotype 10I) was 1.1 fold and the “mean fold increase in resistance” value (Table 9 #3, protease genotype 46I) was 1.2 fold. The “mean fold increase in resistance” value (Table 9 #4, protease genotype 46I + 84V) was 2.3 fold, the “mean fold increase in resistance” value (Table 9 #5, protease genotype 46I + 84A) was 7.7 fold and the “mean fold increase in resistance” value (Table 9 #6, protease genotype 10I + 46I) was 5.6 fold. The “mean fold increase in resistance” value (Table 9 #7, protease genotype 10I + 46I + 84V) was 4.5 fold, the “mean fold increase in resistance” value (Table 9 #8, protease genotype 10I + 46I + 84A) was 17 fold and the “mean fold increase in resistance” value (Table 9 #9, protease genotype 10L/I + 46I + 84A) was 24.9 fold. For the same compound, the “mean fold increase in resistance” value (Table 9 #10, protease genotype 10I + 46I + 84A) was 11 fold, the “mean fold increase in resistance” value (Table 9 #11, protease genotype 46I + 71V) was 2.2 fold and the “mean fold increase in resistance” value (Table 9 #12, protease genotype 46I + 71V + 84V/I) was 2.2 fold. For the same compound, the “mean fold increase in resistance” value (Table 9 #13, protease genotype 46I + 71V + 84A) was 23 fold, the “mean fold increase in resistance” value (Table 9 #14, protease genotype 10F + 46I + 71V) was 4.2 fold and the “mean fold increase in resistance” value (Table 9 #15, protease genotype 10I + 46I + 71V + 84V) was 17.8 fold. For the same compound, the “mean fold increase in resistance” value (Table 9 #16, protease genotype 10I + 46I + 71V + 84A) was 15.2 fold, the “mean fold increase in resistance” value (Table 9 #17, protease genotype 10V + 46I + 71T + 84A) was 39.8 fold and the “mean fold increase in resistance” value (Table 9 #18, protease genotype 10I + 46I + 71V + 77I) was 0.9 fold. For the same compound, the “mean fold increase in resistance” value (Table 9 #19, protease genotype 10I + 46I + 71V + 77I + 84V) was 1.4 fold, the “mean fold increase in resistance” value (Table 9 #20, protease genotype 10I + 46I + 71V + 77I + 84A) was 15 fold and the “mean fold increase in resistance” value (Table 9 #21, protease genotype 10I + 33L/I + 46I + 71V + 77V/I + 84A) was 10.9 fold. The “mean fold increase in resistance” value (Table 10 #1, protease genotype 10I + 36I + 71V) was 1.0 fold, the “mean fold increase in resistance” value (Table 10 #2, protease genotype 10I + 36I + 71I + 84V) was 1.1 fold and the “mean fold increase in resistance” value (Table 10 #3, protease genotype 10I + 36I + 71I + 84L) was 0.3 fold. The “mean fold increase in resistance” value (Table 11 #1, protease genotype WT) was 1.0 fold, the “mean fold increase in resistance” value (Table 11 #2, protease genotype 84V) was 2.0 fold and the “mean fold increase in resistance” value (Table 11 #3, protease genotype 84C) was 5.9 fold. For the same compound, the “mean fold increase in resistance” value (Table 11 #4, protease genotype 10I) was 1.1 fold, the “mean fold increase in resistance” value (Table 11 #5, protease genotype 10I + 84V) was 1.2 fold and the “mean fold increase in resistance” value (Table 11 #6, protease genotype 10I + 84C) was 3.4 fold. For the same compound, the “mean fold increase in resistance” value (Table 11 #7, protease genotype 77I) was 0.6 fold, the “mean fold increase in resistance” value (Table 11 #8, protease genotype 77I + 84V) was 3.3 fold and the “mean fold increase in resistance” value (Table 11 #9, protease genotype 77I + 84C) was 2.2 fold. For the same compound, the “mean fold increase in resistance” value (Table 11 #10, protease genotype 77I + 84C) was 4.9 fold, the “mean fold increase in resistance” value (Table 11 #11, protease genotype 10I + 24I + 36I + 46I + 71V + 84C) was 12.8 fold and the “Fold change in IC50” value (Table 12, V19263, genotype 77I) was 0.6 fold. The “Fold change in IC50” value (Table 12, V20160, genotype WT) was 1.0 fold, the “Fold change in IC50” value (Table 12, V021667, genotype 10I) was 1.1 fold and the “Fold change in IC50” value (Table 12, V030496, genotype 10I + 77I) was 0.5 fold. The “Fold change in IC50” value (Table 12, V048869, genotype 10I + 54M + 77I + 90M) was 9.3 fold, the “Fold change in IC50” value (Table 12, V048872, genotype 33F + 54M + 77I + 90M) was 30.3 fold and the “Fold change in IC50” value (Table 12, V048873, genotype 33F + 54M + 77I + 90M) was 37.5 fold. The “Fold change in IC50” value (Table 12, V048877, genotype 10I + 33F + 77I + 90M) was 7.9 fold, the “Fold change in IC50” value (Table 12, V048878, genotype 10I + 33F + 54M + 71V + 77I + 90M) was 13.7 fold and the “Fold change in IC50” value (Table 12, V048879, genotype 10I + 33F + 54M + 71V + 77I + 90M) was 14.1 fold. For the same compound, the “Fold change in IC50” value (Table 12, V048880, genotype 10I + 33F + 77I + 90M) was 3.8 fold, the “Fold change in IC50” value (Table 12, V052940, genotype 71V) was 0.3 fold and the “Fold change in IC50” value (Table 12, V052942, genotype 10I + 71V) was 0.5 fold. For the same compound, the “Fold change in IC50” value (Table 12, V052943, genotype 10I + 90M) was 0.4 fold, the “Fold change in IC50” value (Table 12, V052944, genotype 10I + 90M) was 0.7 fold and the “Fold change in IC50” value (Table 12, V052945, genotype 77I + 90M) was 0.3 fold. The “Fold change in IC50” value (Table 12, V052946, genotype 71V + 90M) was 0.5 fold, the “Fold change in IC50” value (Table 12, V052947, genotype 10I + 77I + 90M) was 1.2 fold and the “Fold change in IC50” value (Table 12, V052948, genotype 10I + 71V + 90M) was 2.0 fold. The “Fold change in IC50” value (Table 12, V052949, genotype 10I + 71V + 77I + 90M) was 0.6 fold, the “Fold change in IC50” value (Table 12, V052950, genotype 33F) was 0.7 fold and the “Fold change in IC50” value (Table 12, V052951, genotype 33F + 77I) was 0.3 fold. For the same compound, the “Fold change in IC50” value (Table 12, V052953, genotype 10I + 33F + 77I) was 1.5 fold, the “Fold change in IC50” value (Table 12, V052954, genotype 33F + 77I + 90M) was 2.1 fold and the “Fold change in IC50” value (Table 12, V052955, genotype 33F + 71V + 90M) was 2.7 fold. For the same compound, the “Fold change in IC50” value (Table 12, V052977, genotype 10I + 33F + 54M) was 12.2 fold, the “Fold change in IC50” value (Table 12, V052978, genotype 10I + 33F + 54M + 71V + 90M) was 19.3 fold and the “Fold change in IC50” value (Table 12, V052979, genotype 10I + 54M) was 10.4 fold. For the same compound, the “Fold change in IC50” value (Table 12, V052980, genotype 10I + 54M + 90M) was 1.4 fold, the “Fold change in IC50” value (Table 12, V052981, genotype 10I + 54M + 71V + 90M) was 8.9 fold and the “Fold change in IC50” value (Table 12, V052982, genotype 10I + 54M + 71V + 77I + 90M) was 3.1 fold. For the same compound, the “Fold change in IC50” value (Table 12, V053832, genotype 10I + 33F) was 0.6 fold.

— patent US8574831B2, “Mutational profiles in HIV-1 reverse transcriptase correlated with phenotypic drug resistance” (Virco N.V., priority 2000, dated 2013)
